Calls of active or inactive are those of the source.
Assays:
Bcl-2-like protein 10 = target: T1, Bcl-2-like protein 10 (Homo sapiens, UniProt Q9HD36); assay: Biochemical TR3 FP assay of Bcl-B inhibitor potency, EC50 (AID 1243); type: functional
T1 sequence (Q9HD36 whole entry): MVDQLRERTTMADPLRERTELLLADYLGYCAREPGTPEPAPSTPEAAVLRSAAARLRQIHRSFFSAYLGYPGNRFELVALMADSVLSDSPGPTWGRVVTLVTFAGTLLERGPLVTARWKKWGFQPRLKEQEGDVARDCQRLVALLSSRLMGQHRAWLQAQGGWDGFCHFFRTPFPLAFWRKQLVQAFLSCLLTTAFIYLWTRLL

[1] = ZM109 Env clade C HIV-1 fusion inhibitors, dose response, HeLa effector, CEM target cells, luciferase, cherry-pick (AID 652058); type: functional, cell-based
[2] = Luminescence-based counterscreen assay for KLF5 inhibitors: dose response cell-based high throughput screening assay to identify cytotoxic compounds using the IEC-6 intestinal epithelial cell line. [Related pubchem assays: 1700 (Primary screen.), 1834 (Confirmation screen.), 1858 (Summary AID.), 1905 (Counterscreen.)]; type: functional
[3] = HEp-2 cell cytotoxicity, dose response, cytotoxicity control for RSV inhibitor project, HTS (AID 2410); type: functional; conditions: human respiratory syncytial virus
[4] = off-target signal loss in HeLa-CEM21 co-culture – HeLa F-luc CTL cells, cherry-picked, counter-screen for HIV-1 Env fusion inhibitor project, dose response (AID 652040); type: functional, cell-based;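 further: potency for signal decrease marking cytotoxic or nonspecific inhibition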
[5] = CEM21 lymphoblast cell cytotoxicity, dose response, cytotoxicity control for viral fusion inhibitor project, CellTiter-Glo luminescence, cherry-picked (AID 652042); type: functional, cell-based;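 further: potency for signal decrease meaning cytotoxicity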
[6] = inhibitors of HIV Env-driven cell fusion, dose response, cherry-pick (AID 652057); type: functional, cell-based
Vero [7] = assay: cells; type: functional; conditions: Chlorocebus sabaeus
[8] = target: T2, Microphthalmia-associated transcription factor (Homo sapiens, UniProt O75030); assay: TRPM1 promoter luciferase signal decrease, dose response, MITF inhibitor project, cell-based, SK-MEL-5, cherry-picked, set 3 (AID 493073); type: functional
T2 sequence (O75030 whole entry): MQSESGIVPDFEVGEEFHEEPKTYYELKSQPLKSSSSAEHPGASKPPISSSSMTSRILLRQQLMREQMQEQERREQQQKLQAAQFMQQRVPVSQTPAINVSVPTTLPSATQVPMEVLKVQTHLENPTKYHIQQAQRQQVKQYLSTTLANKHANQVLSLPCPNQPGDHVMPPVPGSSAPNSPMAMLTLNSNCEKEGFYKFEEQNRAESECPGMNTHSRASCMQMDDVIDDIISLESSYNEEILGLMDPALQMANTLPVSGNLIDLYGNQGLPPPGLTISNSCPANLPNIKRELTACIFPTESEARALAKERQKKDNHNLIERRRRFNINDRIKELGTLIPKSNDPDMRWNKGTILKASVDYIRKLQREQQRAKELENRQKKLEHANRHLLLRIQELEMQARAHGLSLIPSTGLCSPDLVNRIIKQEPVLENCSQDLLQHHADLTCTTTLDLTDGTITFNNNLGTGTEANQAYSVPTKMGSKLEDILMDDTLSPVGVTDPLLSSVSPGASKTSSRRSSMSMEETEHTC

[9] = inhibitors of clade B AD8 Env fusion, dose response, cell-based, cherry-pick (AID 652062); type: functional;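 further: luciferase signal from cell-cell fusion driven by HIV-1 clade B AD8 Env; potency is for inhibitors of fusion seen as a drop in luminescence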
[10] = target: Glucose-6-phosphate 1-dehydrogenase (Homo sapiens, UniProt P11413); assay: human G6PD enzyme inhibitors, dose response, selectivity assay for P. falciparum G6PD inhibitor project, biochemical, fluorescence (AID 504792); type: functional
[11] = target: T3, Long-chain-fatty-acid--AMP ligase FadD28 (Mycobacterium tuberculosis, UniProt P9WQ59); assay: Fluorescence polarization aasay to screen for inhibitors that compete for the binding of FadD28 to a bisubstrate Measured in Biochemical System Using Plate Reader - 2147-01_Inhibitor_Dose_CherryPick_Activity.; type: functional, Mycobacterium tuberculosis H37Rv
T3 sequence (P9WQ59 whole entry): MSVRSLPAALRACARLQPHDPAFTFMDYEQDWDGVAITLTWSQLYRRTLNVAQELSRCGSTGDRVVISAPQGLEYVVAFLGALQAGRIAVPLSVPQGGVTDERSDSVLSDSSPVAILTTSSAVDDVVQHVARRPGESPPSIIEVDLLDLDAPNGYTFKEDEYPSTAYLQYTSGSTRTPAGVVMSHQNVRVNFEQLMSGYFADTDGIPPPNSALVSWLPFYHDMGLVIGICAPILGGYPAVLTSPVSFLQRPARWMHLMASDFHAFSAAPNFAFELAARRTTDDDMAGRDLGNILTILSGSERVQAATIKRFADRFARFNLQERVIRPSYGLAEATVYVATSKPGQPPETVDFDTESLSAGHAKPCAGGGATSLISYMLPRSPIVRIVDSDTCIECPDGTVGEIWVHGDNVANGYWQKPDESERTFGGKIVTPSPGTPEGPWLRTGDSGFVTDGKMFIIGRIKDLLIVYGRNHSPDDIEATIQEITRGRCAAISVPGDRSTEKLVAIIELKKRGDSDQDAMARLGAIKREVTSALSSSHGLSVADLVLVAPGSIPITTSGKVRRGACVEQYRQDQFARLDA

[12] = Counterscreen for IDE inhibitors: Luminescence-based cell-based high throughput dose response assay to identify compounds that are cytotoxic to HEK cells. [Related pubchem assays: 434962 (Primary screen (IDE inhibitors in singlicate)), 449730 (Counterscreen (Cytotoxicity in triplicate)), 435028 (Confirmation (IDE inhibitors in triplicate)) …; type: functional; conditions: HEK293
Insulin-degrading enzyme = target: T4, Insulin-degrading enzyme (Homo sapiens, UniProt P14735); assay: Dose Response: Fluorescence polarization-based cell-based high throughput dose response assay for inhibitors of insulin-degrading enzyme (IDE). [Related pubchem assays: 434962 (Primary screen (IDE inhibitors in singlicate)), 449730 (Counterscreen (Cytotoxicity in triplicate)), 435028 (Confirmation (IDE inhibitors in triplicate)), 434984 (Summary …; type: functional
T4 sequence (P14735 whole entry): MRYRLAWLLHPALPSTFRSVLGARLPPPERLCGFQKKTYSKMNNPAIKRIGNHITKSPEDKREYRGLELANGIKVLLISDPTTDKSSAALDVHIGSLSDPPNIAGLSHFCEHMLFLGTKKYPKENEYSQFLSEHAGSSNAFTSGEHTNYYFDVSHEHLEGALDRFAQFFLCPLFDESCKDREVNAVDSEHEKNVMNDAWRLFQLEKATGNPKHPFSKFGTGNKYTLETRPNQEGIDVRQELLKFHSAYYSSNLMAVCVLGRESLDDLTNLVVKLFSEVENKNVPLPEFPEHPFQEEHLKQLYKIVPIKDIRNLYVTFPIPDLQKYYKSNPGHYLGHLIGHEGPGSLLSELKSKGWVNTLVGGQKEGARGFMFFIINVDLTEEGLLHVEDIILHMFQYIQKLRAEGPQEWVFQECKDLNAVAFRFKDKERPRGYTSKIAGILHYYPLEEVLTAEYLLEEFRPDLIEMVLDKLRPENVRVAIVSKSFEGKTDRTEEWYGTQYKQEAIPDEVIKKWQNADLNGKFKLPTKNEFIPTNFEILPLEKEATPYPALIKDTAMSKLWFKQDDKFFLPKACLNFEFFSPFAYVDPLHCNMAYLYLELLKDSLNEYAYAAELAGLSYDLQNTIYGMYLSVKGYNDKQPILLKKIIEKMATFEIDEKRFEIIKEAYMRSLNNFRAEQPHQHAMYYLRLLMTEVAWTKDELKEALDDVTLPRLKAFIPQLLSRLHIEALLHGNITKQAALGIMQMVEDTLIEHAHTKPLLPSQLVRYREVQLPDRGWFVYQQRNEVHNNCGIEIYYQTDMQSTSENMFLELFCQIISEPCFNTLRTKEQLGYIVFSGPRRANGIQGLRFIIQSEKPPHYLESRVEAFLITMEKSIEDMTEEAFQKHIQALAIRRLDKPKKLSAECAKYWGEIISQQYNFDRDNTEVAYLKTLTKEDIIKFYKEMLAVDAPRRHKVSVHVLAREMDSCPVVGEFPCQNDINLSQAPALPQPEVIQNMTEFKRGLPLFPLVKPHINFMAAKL

[13] = target: Peroxisome proliferator-activated receptor gamma/Nuclear receptor coactivator 1 (Homo sapiens, UniProt P37231); assay: TR-FRET dose response biochemical High Throughput Screening assay for agonists of the steroid receptor coactivator 1 (SRC-1) recruitment by the peroxisome proliferator-activated receptor gamma (PPAR gamma): non-selective agonists. [Related pubchem assays (depositor defined):AID1300, AID1808, AID504735, AID631]; type: protein assay
[14] = target: Peroxisome proliferator-activated receptor gamma/Nuclear receptor coactivator 3 (Homo sapiens, UniProt P37231); assay: TR-FRET dose response biochemical High Throughput Screening assay for agonists of the steroid receptor coactivator 3 (SRC-3) recruitment by the peroxisome proliferator-activated receptor gamma (PPAR gamma): non-selective agonists. [Related pubchem assays: 1301 (Confirmation screen.), 1048 (Primary screen.)]; type: functional
[15] = target: Peroxisome proliferator-activated receptor gamma/Nuclear receptor coactivator 2 (Homo sapiens, UniProt P37231); assay: TR-FRET dose response biochemical High Throughput Screening assay for agonists of the steroid receptor coactivator 2 (SRC-2) recruitment by the peroxisome proliferator-activated receptor gamma (PPAR gamma): non-selective agonists. [Related pubchem assays: 1297, 1032 ]; type: functional
[16] = target: Neuropeptide Y receptor type 2 (Homo sapiens, UniProt P49146); assay: Fluorescence-based cell-based high-throughput dose response assay for agonists of NPY-Y2. [Related pubchem assays: 1703 (Screening assay (CNGC inhibitors).), 1359 (Screening assay (NPY-Y2 potentiators or agonists).), 1304 (Screening assay (NPY-Y1 potentiators or agonists).), 1710 (Screening assay (NPY-Y2 agonists).), 1791 (Summary AID.)]; type: functional
HEK293 = assay: Fluorescence-based counterscreen for potentiators or agonists of NPY-Y2: cell-based high-throughput dose response assay to identify inhibitors of cyclic nucleotide gated ion channel (CNGC) activity. In this assay, the parental HEK293 cell line transfected with a cyclic-nucleotide gated ion channel (CNGC)-based cAMP sensor is used to measure inhibition of isoproterenol-induced CNGC activity by test compound.; type: functional; conditions: Homo sapiens;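 further: stimulus is 1 µM isoproterenol at EC100 plus PDE inhibitor Ro 20-1724 at 25 µM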
[17] = target: Neuropeptide Y receptor type 1 (Homo sapiens, UniProt P25929); assay: Fluorescence-based counterscreen for agonists of NPY-Y2: cell-based high-throughput dose response assay for agonists of NPY-Y1.; type: functional
[18] = NIH-3T3 fibroblast cytotoxicity, dose response, cytotoxicity control, cell-based, fluorescence, Alamar Blue, secondary assay (AID 2327); type: functional;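 further: NIH-3T3 mouse fibroblasts cultured with fluconazole at 8 µg/mL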
[19] = target: Serine/threonine-protein phosphatase PP1-alpha catalytic subunit (Homo sapiens, UniProt P62136); assay: PP1 phosphatase inhibitors, dose response, biochemical, fluorescence (AID 2403);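 further: phosphatase turnover of OMFP into fluorescent 3-O-methylfluorescein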
Genome polyprotein = Genome polyprotein (dengue virus type 2, UniProt P29990); assay: Dengue-2 NS5 methyltransferase inhibitors, primary screen, biochemical, confirmation dose response (AID 588689); type: functional
[20] = target: Ras and Rab interactor 1/Tyrosine-protein kinase ABL1 (Homo sapiens, UniProt P00519+Q13671); type: functional;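 further: biochemical TR-FRET dose-response test measuring inhibition of binding between Rin1 and Abl proteins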
[21] = target: T5, Polyadenylate-binding protein 1 (Homo sapiens, UniProt P11940); assay: PABP1 MLLE–PAM2 interaction inhibitors, dose response, miRNA deadenylation inhibitor project, biochemical, fluorescence polarization, Cy5-PAM2 peptide, secondary (AID 602260); type: functional; conditions: read-out: IC50_Mean
[22] = target: Serine/threonine-protein phosphatase (Homo sapiens, UniProt Q9BPW0); assay: Counterscreen for inhibitors of PP1: fluorescence-based biochemical high throughput dose response assay to identify inhibitors of Protein Phosphatase 5 (PP5). [Related pubchem assays: 2034 (Summary (PP5 inhibitors)), 1987 (PP5 inhibitors in singlate), 2235 (PP1 inhibitors in singlate)]
[23] = target: T5, Polyadenylate-binding protein 1; assay: PABP1 MLLE–PAM2 binding inhibitor potency, dose response, biochemical, fluorescence polarization, FITC-PAM2 peptide (AID 602259); type: functional; conditions: read-out: IC50_Mean
[24] = target: Heat shock protein HSP 90-alpha (Homo sapiens, UniProt P07900); type: functional, organism-based
Vero [25] = assay: Vero cell cytotoxicity, cytotoxicity control for flavivirus capping enzyme inhibitors (AID 588742); type: functional; conditions: Chlorocebus sabaeus
[26] = C. albicans growth with fluconazole, confirmation, fluorescence, retest (AID 2467); type: functional, cell-based
Vero [27] = assay: cytotoxicity of synthesized analogs in Vero cells, SAR follow-up, cytotoxicity control for West Nile virus antiviral project, cell-based, set II (AID 2402); type: functional; conditions: Chlorocebus sabaeus
Vero [28] = assay: cytotoxicity of synthesized analogs in Vero 76, SAR follow-up, cytotoxicity control for West Nile virus antiviral project, Vero 76 cells (AID 2414); type: functional; conditions: Chlorocebus sabaeus
[29] = A Cell Based Assay for the Identification of Probe candidate Compounds with Anti- Venezuelan Equine Encephalitis virus. [Related pubchem assays: 2409, 2419, 1621, 2238, 2405, 2024, 2065, 2402, 2414, 1635, 1650, 2244 ]; type: functional

T5 sequence (P11940 whole entry): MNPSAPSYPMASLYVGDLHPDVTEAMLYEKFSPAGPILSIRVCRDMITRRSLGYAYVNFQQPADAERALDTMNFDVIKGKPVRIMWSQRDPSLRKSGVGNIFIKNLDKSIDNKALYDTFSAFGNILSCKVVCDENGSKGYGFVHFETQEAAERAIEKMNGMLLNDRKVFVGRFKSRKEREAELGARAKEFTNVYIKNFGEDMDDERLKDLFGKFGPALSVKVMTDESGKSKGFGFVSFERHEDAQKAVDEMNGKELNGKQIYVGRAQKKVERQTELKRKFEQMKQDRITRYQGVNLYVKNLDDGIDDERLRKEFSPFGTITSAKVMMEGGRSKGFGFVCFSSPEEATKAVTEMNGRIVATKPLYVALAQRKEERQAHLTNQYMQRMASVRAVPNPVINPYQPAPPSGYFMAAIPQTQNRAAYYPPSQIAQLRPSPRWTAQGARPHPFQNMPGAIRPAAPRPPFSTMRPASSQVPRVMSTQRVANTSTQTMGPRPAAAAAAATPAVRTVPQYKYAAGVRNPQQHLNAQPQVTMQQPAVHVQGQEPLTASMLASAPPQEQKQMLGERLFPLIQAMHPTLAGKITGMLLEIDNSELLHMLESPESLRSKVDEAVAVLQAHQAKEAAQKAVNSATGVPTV
Chain of Ras and Rab interactor 1/Tyrosine-protein kinase ABL1 (P00519 whole entry): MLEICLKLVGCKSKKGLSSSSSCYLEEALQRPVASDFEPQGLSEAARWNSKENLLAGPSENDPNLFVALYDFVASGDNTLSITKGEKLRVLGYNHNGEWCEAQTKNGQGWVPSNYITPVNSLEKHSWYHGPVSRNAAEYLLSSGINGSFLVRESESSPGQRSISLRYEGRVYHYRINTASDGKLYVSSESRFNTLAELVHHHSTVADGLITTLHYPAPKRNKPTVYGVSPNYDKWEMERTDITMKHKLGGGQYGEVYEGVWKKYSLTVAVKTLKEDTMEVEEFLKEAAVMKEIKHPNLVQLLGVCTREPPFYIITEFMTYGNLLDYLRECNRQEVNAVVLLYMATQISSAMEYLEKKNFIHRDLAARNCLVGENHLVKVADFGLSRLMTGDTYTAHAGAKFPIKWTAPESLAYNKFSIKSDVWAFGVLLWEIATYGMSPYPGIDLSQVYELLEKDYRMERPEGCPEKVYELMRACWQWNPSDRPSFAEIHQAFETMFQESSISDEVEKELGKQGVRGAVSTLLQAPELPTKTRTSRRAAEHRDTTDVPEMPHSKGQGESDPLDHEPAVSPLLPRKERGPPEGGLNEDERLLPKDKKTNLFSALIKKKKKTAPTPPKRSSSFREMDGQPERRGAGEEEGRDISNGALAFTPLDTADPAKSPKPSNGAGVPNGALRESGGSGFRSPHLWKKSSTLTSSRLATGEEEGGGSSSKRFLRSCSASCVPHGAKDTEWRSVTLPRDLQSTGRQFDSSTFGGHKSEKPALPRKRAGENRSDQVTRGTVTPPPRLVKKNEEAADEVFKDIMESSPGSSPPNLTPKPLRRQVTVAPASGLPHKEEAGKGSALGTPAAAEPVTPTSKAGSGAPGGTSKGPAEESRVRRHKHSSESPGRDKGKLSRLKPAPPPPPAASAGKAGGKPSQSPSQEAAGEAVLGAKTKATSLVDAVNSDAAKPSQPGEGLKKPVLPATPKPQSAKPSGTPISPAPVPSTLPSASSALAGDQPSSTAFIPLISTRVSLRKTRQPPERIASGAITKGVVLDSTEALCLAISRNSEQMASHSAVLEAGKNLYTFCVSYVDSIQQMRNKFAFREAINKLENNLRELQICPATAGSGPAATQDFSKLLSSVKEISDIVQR
Chain of Ras and Rab interactor 1/Tyrosine-protein kinase ABL1 (Q13671 whole entry): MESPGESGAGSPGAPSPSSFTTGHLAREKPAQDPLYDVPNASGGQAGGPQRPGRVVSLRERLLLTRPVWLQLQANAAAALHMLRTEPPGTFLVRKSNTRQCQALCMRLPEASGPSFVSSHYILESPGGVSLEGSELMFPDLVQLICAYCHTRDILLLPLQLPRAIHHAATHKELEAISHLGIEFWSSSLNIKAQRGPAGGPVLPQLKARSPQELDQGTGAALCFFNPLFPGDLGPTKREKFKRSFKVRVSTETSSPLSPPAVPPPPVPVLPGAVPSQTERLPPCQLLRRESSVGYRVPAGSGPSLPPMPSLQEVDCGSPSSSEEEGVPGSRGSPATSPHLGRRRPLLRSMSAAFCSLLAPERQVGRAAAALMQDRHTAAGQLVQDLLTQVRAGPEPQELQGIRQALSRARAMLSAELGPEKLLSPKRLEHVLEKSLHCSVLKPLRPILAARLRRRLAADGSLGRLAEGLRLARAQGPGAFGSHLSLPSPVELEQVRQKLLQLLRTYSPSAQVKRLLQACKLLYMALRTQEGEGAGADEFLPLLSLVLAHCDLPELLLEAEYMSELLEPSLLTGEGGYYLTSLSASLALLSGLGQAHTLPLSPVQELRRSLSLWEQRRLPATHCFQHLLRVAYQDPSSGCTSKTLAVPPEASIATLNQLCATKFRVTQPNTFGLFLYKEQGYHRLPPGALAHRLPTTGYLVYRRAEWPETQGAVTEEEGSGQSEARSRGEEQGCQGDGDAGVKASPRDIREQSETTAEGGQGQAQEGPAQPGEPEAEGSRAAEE
Chain of Neuropeptide Y receptor type 1 (P25929 whole entry): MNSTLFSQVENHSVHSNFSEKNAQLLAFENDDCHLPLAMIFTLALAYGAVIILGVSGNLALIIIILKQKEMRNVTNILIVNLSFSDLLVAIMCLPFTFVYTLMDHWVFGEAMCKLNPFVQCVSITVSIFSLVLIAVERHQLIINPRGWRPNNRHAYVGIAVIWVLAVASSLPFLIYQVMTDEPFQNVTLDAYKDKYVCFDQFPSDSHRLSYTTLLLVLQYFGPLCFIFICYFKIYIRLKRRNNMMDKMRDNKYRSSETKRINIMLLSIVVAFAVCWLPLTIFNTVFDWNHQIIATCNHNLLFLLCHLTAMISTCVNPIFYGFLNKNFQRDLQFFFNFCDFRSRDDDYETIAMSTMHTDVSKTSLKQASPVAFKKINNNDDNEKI
Chain of Peroxisome proliferator-activated receptor gamma/Nuclear receptor coactivator 2 (P37231 whole entry): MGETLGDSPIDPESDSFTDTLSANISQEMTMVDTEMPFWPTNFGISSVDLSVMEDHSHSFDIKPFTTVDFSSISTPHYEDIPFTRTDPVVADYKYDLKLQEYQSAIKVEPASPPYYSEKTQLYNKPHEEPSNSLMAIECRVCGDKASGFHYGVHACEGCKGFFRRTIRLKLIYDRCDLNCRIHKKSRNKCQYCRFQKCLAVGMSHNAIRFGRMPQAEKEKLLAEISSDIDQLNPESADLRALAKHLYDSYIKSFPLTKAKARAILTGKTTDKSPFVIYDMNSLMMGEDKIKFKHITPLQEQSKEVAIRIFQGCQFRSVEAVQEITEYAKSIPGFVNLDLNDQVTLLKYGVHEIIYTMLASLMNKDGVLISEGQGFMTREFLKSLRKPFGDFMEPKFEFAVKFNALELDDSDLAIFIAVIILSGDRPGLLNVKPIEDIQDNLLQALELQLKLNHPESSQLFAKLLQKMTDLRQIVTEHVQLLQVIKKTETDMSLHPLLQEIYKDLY
Chain of Peroxisome proliferator-activated receptor gamma/Nuclear receptor coactivator 2 (Q15596 whole entry, further chain): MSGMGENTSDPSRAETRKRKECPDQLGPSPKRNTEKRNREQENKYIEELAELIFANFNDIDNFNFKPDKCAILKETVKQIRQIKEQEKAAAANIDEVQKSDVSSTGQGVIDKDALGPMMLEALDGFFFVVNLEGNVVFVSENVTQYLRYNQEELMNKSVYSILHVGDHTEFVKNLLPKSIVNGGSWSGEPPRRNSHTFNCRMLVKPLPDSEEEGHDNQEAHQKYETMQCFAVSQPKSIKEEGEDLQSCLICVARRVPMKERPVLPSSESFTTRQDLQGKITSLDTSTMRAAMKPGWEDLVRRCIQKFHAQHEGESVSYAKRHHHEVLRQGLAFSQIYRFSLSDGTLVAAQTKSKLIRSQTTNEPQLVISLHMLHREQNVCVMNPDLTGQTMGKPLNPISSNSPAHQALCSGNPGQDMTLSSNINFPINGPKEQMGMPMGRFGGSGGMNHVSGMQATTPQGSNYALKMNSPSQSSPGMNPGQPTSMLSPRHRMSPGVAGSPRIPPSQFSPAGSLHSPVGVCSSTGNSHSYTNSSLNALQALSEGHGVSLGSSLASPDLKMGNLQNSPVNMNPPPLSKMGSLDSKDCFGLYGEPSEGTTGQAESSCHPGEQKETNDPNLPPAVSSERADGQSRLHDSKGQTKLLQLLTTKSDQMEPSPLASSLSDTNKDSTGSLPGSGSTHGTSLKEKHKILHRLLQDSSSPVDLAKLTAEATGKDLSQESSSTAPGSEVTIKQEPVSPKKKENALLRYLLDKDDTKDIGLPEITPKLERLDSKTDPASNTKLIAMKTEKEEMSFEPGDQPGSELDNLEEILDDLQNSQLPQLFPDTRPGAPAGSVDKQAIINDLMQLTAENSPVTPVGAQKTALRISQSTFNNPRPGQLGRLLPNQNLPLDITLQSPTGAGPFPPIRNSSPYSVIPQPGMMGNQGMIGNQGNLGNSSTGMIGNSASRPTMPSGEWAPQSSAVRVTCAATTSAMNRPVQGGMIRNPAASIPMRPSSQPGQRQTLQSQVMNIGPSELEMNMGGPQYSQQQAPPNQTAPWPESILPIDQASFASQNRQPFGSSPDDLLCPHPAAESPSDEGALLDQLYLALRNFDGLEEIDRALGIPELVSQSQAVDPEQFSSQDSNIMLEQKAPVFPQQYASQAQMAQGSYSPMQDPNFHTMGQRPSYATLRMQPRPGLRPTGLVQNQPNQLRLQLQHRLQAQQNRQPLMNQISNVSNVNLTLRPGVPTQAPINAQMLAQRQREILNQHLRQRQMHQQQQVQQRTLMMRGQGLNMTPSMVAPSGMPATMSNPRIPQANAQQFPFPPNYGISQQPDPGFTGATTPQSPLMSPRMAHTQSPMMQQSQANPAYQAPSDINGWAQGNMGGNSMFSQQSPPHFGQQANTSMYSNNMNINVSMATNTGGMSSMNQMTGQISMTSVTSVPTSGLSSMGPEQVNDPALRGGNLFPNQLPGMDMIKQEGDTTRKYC

Cc1ccc(C)n1-c1ccccc1C(=O)O
EC50 (Bcl-2-like protein 10): 0.62 µM (active)

CC(C)(C)c1ccc(C(=O)Nc2sc3c(c2C(=O)O)CCC3)cc1
AC50 [1]: 1.36 µM (active) | IC50 [2]: > 39.8 µM (not active) | CC50 [3]: 6.97 µM (active) | AC50 [4]: 4.43 µM (active) | AC50 [5]: 66.1 µM (active) | AC50 [6]: 2.21 µM (active) | CC50 (Vero [7]): > 25 µM (active) | AC50 [8]: 2.09 µM (active) | AC50 [9]: 0.786 µM (active) | IC50 [10]: > 80 µM (inactive) | AC50 [11]: > 100 µM (inactive)

COC(=O)C1=C(C)N=c2s/c(=C/c3ccoc3)c(=O)n2C1c1ccccc1 (stereo not drawn)
IC50 [12]: 16.3 µM (not active) | IC50 (Insulin-degrading enzyme): > 2.07 µM (active)

CC(C)OC(=O)C(C)Nc1nnc(S)nc1O (stereo not drawn)
EC50 [13]: 4.26 µM (active) | EC50 [14]: 35.1 µM (not active) | EC50 [15]: 4.97 µM (active) | EC50 [16]: > 35.4 µM (not active) | EC50 (HEK293): > 35.4 µM (not active) | EC50 [17]: > 35.4 µM (not active)

CN1CCN(C(c2ccccn2)c2cc(Cl)c3cccnc3c2O)CC1 (stereo not drawn)
EC50 [18]: 24.9 µM (active) | IC50 [19]: 4.17 µM (active) | IC50 (Genome polyprotein): > 100 µM (active) | IC50 [20]: > 73.5 µM (inactive) | IC50 [21]: > 66 µM (inactive) | IC50 [22]: 47.6 µM (not active) | IC50 [23]: > 66 µM (inactive) | AC50 [24]: 6.54 µM (active) | CC50 (Vero [25]): 37.2 µM (active) | EC50 [26]: 1.42 µM (active)

Cc1cccc2c(=O)n(-c3ccccc3)c(SCC(=O)Nc3ccc4c(c3)CCC4)nc12
CC50 (Vero [27]): > 200 µM (active) | CC50 (Vero [28]): > 133 µM (active) | IC50 [29]: > 133 µM (active)
